The subject of assay [1] is Nanchung and Inactive (Nan + Iav) complexes. In words: Calcium mobilization in CHO-K1 cells co-expressing Nanchung and Inactive. In kind it is cell-based, Drosophila melanogaster. Background: A change in cytosolic calcium serves as a functional read-out for many receptors and channels.
The test system of assay [2] is parental mammalian cells (CHO-K1). The assay can be described thus: Calcium mobilization in parental mammalian cells. It counts as cell-based, hamster. The settings on record: prior to infection.
In assay [3] the test system is complexes formed by Nanchung protein and Inactive protein. The assay can be described thus: [3H]-afidopyropen competition binding to membranes of cells co-expressing Nanchung and Inactive. Details: species or system Drosophila melanogaster. The settings on record: membranes from cells co-expressing Nanchung and Inactive.
For a further assay, the system named is Water witch (Wtrw). In words: Calcium mobilization in CHO-K1 cells expressing Water witch alone. The settings on record: CHO-K1 cells expressing Water witch individually.
The test system of assay [4] is Nanchung and Water witch (Nan + Wtrw) complexes. The assay can be described thus: Calcium mobilization (fluo-4, FLIPR) in CHO-K1 cells co-expressing Nanchung and Water witch. The settings on record: for Ca2+ mobilization response: CHO-K1 cells co-expressing Nanchung and Water witch.
Source text: DNAs encoding for tagged TRP channels were delivered into CHO-K1 cells using adenoviruses. Adenovirus-mediated gene delivery allowed for expression of the gene of interest, optimize expression levels and stoichiometry of subunits, as well as prevention of possible toxic effects of insect TRP channels by maintaining virus-infected cells at room temperature.
To test the hypothesis that Water witch may also be involved in the action of PM and AP, Water witch was expressed in CHO-K1 cells either alone or in combination with Nanchung. Given that TRP channels are permeable for Ca2+, cell responces were measured by monitoring Ca2+ mobilization using Ca2+ sensitive fluorescent probe FLUO4.
Hamster CHO-K1 cells (ATCC ® CCL-61TM) were infected with adenoviruses expressing TRP channels individually or in combinations. The cells were kept overnight at 37° C., followed by 3 days at 25° C. The medium was changed two days after seeding. Calcium mobilization was detected using fluorescent calcium probe fluo-4AM (Life Technologies) and measured by FLIPR-TETRA instrument (Molecular Devices, Sunnyvale, CA). The cells were loaded with 50 µl of Hank’s buffered salt solution (HBSS) containing 4 µM fluo-4AM, 5 mM probenecid, 20 mM CaCl2, and 0.02% pluoronic for 2 hours at 25° C. The dye was then discarded, 50 µl of HBSS were added. The test compounds were dissolved in DMSO and added to the cells in 50 µl HBSS, yielding a final DMSO concentration of 0.2%. Fluorescence was monitored for 10 minutes at 1 second intervals at 470-495 nm/515-575 nm excitation/emission wavelengths. EC50 values were calculated using GraphPad Prism (GraphPad Software).
Assay [5] concerns the target complexes formed by Nanchung protein and Water witch protein (Nan + Wtrw) (Drosophila melanogaster, UniProt A0ACM8PYI9). In words: biochemical. It counts as binding. As to conditions: for Inhibition of binding of tritiated afidopyropen: membranes from cells co-expressing Nanchung and Water witch.
The subject of assay [6] is Nanchung (Nan). In words: Calcium mobilization in CHO-K1 cells expressing Nanchung alone. In kind it is cell-based, Drosophila melanogaster. The settings on record: CHO-K1 cells expressing Nanchung individually.
In assay [7] the test system is Inactive and Water witch (Iav + Wtrw). In words: Calcium mobilization in CHO-K1 cells co-expressing Inactive and Water witch. In kind it is cell-based, Drosophila melanogaster.
For assay [8], the target named is Nanchung (Nan) protein alone (Drosophila melanogaster, UniProt A0ACM8PYI9). In words: [3H]-afidopyropen saturation binding to membranes of CHO-K1 cells expressing Nanchung alone. The settings on record: membranes from CHO-K1 cells expressing Nanchung individually; read-out: Kd, specific binding of tritium-labeled afidopyropen.
Assay [9] deals with Nanchung (Nan). The settings on record: previously shown; cited from earlier work.
For assay [10], the system named is Water witch (Wtrw) protein alone. The assay can be described thus: [3H]-afidopyropen saturation binding to membranes expressing Water witch alone. Details: species or system Drosophila melanogaster.
Assay [11] addresses T1, complexes formed by Nanchung and Water witch proteins (Wtrw + Nan) (Drosophila melanogaster, UniProt Q9VHY7+Q9VUD5).
T1 construct: adenoviral co-expression in CHO-K1 cells, fluo-4 calcium FLIPR
T1 sequence (Q9VUD5 1-833): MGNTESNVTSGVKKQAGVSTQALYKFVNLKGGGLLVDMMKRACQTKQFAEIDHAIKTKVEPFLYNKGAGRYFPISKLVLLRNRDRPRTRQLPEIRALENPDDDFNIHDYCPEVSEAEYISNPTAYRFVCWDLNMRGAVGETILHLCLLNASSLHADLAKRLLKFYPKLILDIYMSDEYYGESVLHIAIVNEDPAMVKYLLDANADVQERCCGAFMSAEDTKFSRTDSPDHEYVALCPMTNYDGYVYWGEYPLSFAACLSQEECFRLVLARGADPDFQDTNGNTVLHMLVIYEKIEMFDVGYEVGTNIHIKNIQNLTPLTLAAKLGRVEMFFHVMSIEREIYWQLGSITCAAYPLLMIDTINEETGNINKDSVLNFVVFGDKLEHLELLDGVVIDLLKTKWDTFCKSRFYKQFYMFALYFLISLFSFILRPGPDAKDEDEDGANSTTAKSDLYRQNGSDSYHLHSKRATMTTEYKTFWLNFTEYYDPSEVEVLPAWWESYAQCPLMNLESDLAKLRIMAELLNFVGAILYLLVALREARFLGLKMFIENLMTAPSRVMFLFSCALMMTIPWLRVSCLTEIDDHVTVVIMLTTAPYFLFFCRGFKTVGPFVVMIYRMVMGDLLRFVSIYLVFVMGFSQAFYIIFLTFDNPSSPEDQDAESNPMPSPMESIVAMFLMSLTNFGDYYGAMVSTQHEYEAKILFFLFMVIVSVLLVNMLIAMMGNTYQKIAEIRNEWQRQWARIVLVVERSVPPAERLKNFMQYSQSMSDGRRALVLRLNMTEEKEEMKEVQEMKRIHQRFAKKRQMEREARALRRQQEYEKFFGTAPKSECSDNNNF
T1 sequence (Q9VHY7 1-986): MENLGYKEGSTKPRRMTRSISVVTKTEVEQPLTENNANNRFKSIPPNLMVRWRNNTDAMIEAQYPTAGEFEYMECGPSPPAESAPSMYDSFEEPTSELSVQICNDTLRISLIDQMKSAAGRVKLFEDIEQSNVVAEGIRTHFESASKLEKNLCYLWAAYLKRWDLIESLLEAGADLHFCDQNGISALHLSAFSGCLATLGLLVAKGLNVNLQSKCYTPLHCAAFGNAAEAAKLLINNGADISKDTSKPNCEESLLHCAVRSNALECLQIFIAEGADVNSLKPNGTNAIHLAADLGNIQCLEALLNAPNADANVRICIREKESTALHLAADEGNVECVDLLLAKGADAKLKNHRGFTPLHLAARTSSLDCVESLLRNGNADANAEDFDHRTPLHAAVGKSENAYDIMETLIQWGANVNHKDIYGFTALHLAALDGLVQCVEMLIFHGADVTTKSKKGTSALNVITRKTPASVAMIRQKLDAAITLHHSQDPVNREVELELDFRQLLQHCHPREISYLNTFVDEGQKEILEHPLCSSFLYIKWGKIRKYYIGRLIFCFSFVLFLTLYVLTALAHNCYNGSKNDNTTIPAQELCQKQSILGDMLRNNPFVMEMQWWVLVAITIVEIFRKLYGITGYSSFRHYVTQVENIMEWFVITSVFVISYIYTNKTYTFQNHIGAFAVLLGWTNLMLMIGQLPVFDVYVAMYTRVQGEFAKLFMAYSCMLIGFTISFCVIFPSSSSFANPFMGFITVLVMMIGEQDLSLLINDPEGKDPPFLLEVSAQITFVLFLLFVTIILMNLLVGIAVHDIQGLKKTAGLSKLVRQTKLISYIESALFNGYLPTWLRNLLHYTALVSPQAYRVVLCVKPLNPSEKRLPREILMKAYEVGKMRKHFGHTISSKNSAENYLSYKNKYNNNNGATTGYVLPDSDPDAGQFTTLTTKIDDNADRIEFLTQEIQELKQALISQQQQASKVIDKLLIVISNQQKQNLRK
In words: Calcium mobilization (fluo-4AM, FLIPR-TETRA) in CHO-K1 cells co-expressing Water witch and Nanchung. It counts as cell-based. The settings on record: FIG. 2B; hamster CHO-K1 cells, adenovirus; Wtrw (SEQ ID NO 63) C-terminal FLAG/AcGFP, Nan (SEQ ID NO 7) C-terminal HA/mCherry; fluo-4AM, 20 mM CaCl2, 0.2% DMSO, 10 min; read-out: Wtrw + Nan (Water witch:Nanchung complex) EC50 (calcium response).

The target in assay [12] is T2, Drosophila melanogaster Water witch fused at its carboxyl terminus with FLAG tags and AcGFP fluorescent … (Drosophila melanogaster).
T2 construct: TRPA channel subunit expressed in hamster CHO-K1 cells by adenovirus; also called Wtrw-FLAG; FLAG-tagged Water witch; not shown: FLAG tags and AcGFP fused in-frame at the carboxyl terminus
T2 chain: T1 sequence (Q9VHY7 1-986)
The assay can be described thus: co-immunoprecipitation from lysates of adenovirus-transduced CHO-K1 cells; anti-FLAG M2 affinity gel, Western blot with anti-HA. A general note: Immunoblotting shows a protein as a band on a membrane.

Broadly, the Kd is the concentration at which binding is half-saturated. As usually defined, the EC50 is the midpoint of the concentration-response curve.

In the case of `NC(=O)c1cccnc1` [nicotinamide], the “Ca2+ mobilization response” value in assay [1] was “evoked Ca2+ response”; in assay [2], “not in parental mammalian cells”; with Water witch (Wtrw) it was “not in the cells expressing these proteins individually”; in assay [4] it was “evoked Ca2+ response”. Further, the “Inhibition of binding of tritiated afidopyropen” value in assay [3] and in [5] was “completely inhibited binding” in each case. Besides, the “Potency and efficacy of activation, Nanchung:Inactive compared with Nanchung:Water witch complexes” value in assay [4] (dose response of calcium responses, FIG. 4B) is “nearly identical potency and efficacy”.
Take `C=CCN=C=S` [allyl isothiocyanate]: the “Ca2+ mobilization response” value is listed as “not responsive” in assay [1]; “not in parental mammalian cells” in assay [2]; “nor in cells expressing Nancung (Nan)” in the assay with Nanchung (Nan) [6]; “activation of Ca2+ mobilization” in assay [7]; “efficiently activated” with Water witch (Wtrw); “efficiently activated” in [4].
In the case of `C[C@]1(COC(=O)C2CC2)[C@@H]2C[C@H](O)[C@@]3(C)Oc4cc(-c5cccnc5)oc(=O)c4[C@H](O)[C@@H]3[C@@]2(C)CC[C@@H]1OC(=O)C1CC1` [afidopyropen], the equilibrium dissociation constant (Kd) in assay [8] was found to be 4.5 nM; in [5], 0.048 nM. In addition, the “Response of Nanchung alone to stimulation” value with Nanchung (Nan) [9] is recorded as “does not respond”. Also, the “Ca2+ mobilization response” value in assay [4] is reported as “elicited calcium mobilization”. For the same molecule, the “Binding of tritiated afidopyropen” value in assay [10] was “negligible”.
With `O=CC=Cc1ccccc1` [cinnamaldehyde], the “Ca2+ mobilization response” value is “not responsive” in assay [1]; “not in parental mammalian cells” in assay [2]; “nor in cells expressing Nancung (Nan)” in the assay with Nanchung (Nan) [6]; “activation of Ca2+ mobilization” in assay [7]; “efficiently activated” in the assay with Water witch (Wtrw); “efficiently activated” in assay [4].
On to `CC1=NNC(=O)N(/N=C/c2cccnc2)C1` [pymetrozine], for which the “Inhibition of binding of tritiated afidopyropen” value in [3] and in assay [5] was “completely inhibited binding” in each case. Also, the “Response of Nanchung alone to stimulation” value with Nanchung (Nan) [9] is “does not respond”. Further, the “Ca2+ mobilization response” value in assay [4] is “elicited calcium mobilization”.
Consider `NC(=O)c1cnccc1C(F)(F)F` [TFNA-AM, 4-trifluoronicotinamide], for which the “Ca2+ mobilization response” value in assay [4] was “without effect”.
Regarding `C[C@]1(COC(=O)C2CC2)[C@@H]2C[C@H](O)[C@@]3(C)Oc4cc(-c5cccnc5)oc(=O)c4[C@H](O)[C@@H]3[C@@]2(C)CC[C@@H]1OC(=O)C1CC1` [AP, afidopyropen], the concentration for a half-maximal effect (EC50) in assay [11] worked out at 39 nM.
With `N#CCNC(=O)c1cnccc1C(F)(F)F` [flonicamid], in [4], the “Ca2+ mobilization response” value is recorded as “without effect”.

B1: Drosophila melanogaster Nanchung fused at its carboxyl terminus with HA tags and mCherry fluorescent protein (other)
chain: T1 sequence (Q9VUD5 1-833)
notes: TRPV channel subunit expressed in hamster CHO-K1 cells by adenovirus; For the co-immunoprecipitation the cells were lysed in Triton X-100 buffer; also called Nan-HA; HA-tagged Nanchung; not shown: HA tags and mCherry fused in-frame at the carboxyl terminus
Take B1: the binding result in [12] is given as “binds”.
